Here are results for three compounds from ChEMBL document CHEMBL1147354, “Further bioactive cembranolide diterpenes from the gorgonian Eunicea succinea” (J Nat Prod, 1993).

What all share (type): functional, cell-based
In one assay the test system is HCT-116. In words: Cytotoxicity against human HCT116 cells.
The next assay has as its system MCF7. In words: Cytotoxicity against human MCF7 cells.
The next assay deals with CCRF-CEM. In words: Cytotoxicity against human CCRF-CEM cells.
The subject of another assay is SK-MEL-5. In words: Cytotoxicity against human SK-MEL-5 cells.

Converted amounts (≈) assume the structure as drawn. Bounds are passed on as bounds.

`C=C1C(=O)O[C@H]2[C@H](OC(C)=O)[C@H](C)CCC/C(C)=C/CC[C@@]3(C)O[C@@H]3C[C@@H]12`: the IC50 with HCT-116 is 8 µg/mL (≈ 21.2 µM); in the assay on MCF7, 8 µg/mL (≈ 21.2 µM); in the assay on CCRF-CEM it was at least 50 µg/mL.
Consider `C=C1C(=O)O[C@H]2[C@@H](OC(C)=O)[C@H](C)CCC/C(C)=C/CC[C@@]3(C)O[C@@H]3C[C@@H]12`, for which the figures for the IC50 in the assay with HCT-116, with MCF7 and in the assay with SK-MEL-5 were 0.4 µg/mL (≈ 1.06 µM), 6 µg/mL (≈ 15.9 µM) and 5 µg/mL (≈ 13.3 µM), respectively.
On to `C=C1C(=O)OC2C(=O)[C@H](C)CCC/C(C)=C/CC[C@@]3(C)O[C@@H]3C[C@@H]12` (some centres undefined) [SUCCINOLIDE], for which the IC50 in the assay on HCT-116 was 2 µg/mL (≈ 6.02 µM); in the assay with MCF7, 3 µg/mL (≈ 9.02 µM); in the assay on CCRF-CEM it was at least 50 µg/mL.
